This passage reports IC50 results from patent US20260356851A1, “TRICYCLIC COMPOUNDS AND USES THEREOF” (HUTCHMED LIMITED, priority 2023, published 2026).

Where two headings read alike, the source gives them in different places.

Common to all, as to format: cell-based
The target of assay [1] is T1, pERK1/2 (Thr202/Tyr204), NCI-1H358 (KRAS G12C) (Homo sapiens, UniProt P01116, G12C).
T1 construct: pERK1/2 HTRF read-out
Kind of assay: Assay of intracellular pERK1/2 (Thr202/Tyr204) phosphorylation in NCI-H358 cells (KRAS G12C). Put shortly:
(§1)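 Cells (10000-12000/well) exposed to 3-fold compound dilutions for 2 days at 37 °C, then lysed; pERK1/2 (Thr202/Tyr204) measured by HTRF with d2 and cryptate antibodies, 665/615 nm ratio.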

For assay [2], the target named is T2, pERK1/2 (Thr202/Tyr204), PANC-1 (KRAS G121D) (Homo sapiens, UniProt P01116, G12D).
T2 construct: pERK1/2 HTRF read-out
The experiment in a line: Assay of intracellular pERK1/2 (Thr202/Tyr204) phosphorylation in PANC-1 cells (KRAS G12D). Put shortly: as §1

Assay [3] has as its target T3, pERK1/2 (Thr202/Tyr204), NCI-1H441 (KRAS G12V) (Homo sapiens, UniProt P01116, G12V).
T3 construct: pERK1/2 HTRF read-out
Kind of assay: Assay of intracellular pERK1/2 (Thr202/Tyr204) phosphorylation in NCI-H441 cells (KRAS G12V). Put shortly:
as §1

[4] abbreviates: pERK1/2, 2 days, read-out: NCI-H358 (KRAS G12C) IC50.
[5] abbreviates: pERK1/2, 2 days, read-out: PANC-1 (KRAS G12D) IC50.
The mark [6] stands for this setting: pERK1/2, 2 days, read-out: NCI-H441 (KRAS G12V) IC50.

T3 sequence (P01116 1-188 isoform P01116-2 G12V): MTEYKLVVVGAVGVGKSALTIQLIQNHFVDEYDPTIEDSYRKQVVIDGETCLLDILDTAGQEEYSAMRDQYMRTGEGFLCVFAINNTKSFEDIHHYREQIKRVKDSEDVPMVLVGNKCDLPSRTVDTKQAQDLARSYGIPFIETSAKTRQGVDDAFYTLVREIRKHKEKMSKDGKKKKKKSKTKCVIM
T1 sequence (P01116 1-188 isoform P01116-2 G12C): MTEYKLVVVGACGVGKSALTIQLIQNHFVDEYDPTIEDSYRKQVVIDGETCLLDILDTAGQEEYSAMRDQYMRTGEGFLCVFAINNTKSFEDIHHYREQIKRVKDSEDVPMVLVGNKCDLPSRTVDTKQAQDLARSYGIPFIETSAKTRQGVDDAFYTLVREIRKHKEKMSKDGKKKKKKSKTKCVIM
T2 sequence (P01116 1-188 isoform P01116-2 G12D): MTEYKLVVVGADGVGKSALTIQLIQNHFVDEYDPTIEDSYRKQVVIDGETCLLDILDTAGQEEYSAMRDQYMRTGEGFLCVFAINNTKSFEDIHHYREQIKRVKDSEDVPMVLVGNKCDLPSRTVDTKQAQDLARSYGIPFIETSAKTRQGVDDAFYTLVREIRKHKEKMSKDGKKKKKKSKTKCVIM

Take `Cc1c(F)c(N)cc(-c2nc3c4c(nc(OC[C@@]56CCCN5C[C@]5(CC5(F)F)C6)nc4c2F)N(C(C)c2cccnc2N)CCO3)c1C(F)(F)F` (single isomer, unassigned; diastereomer 2) [Compound 239, (*)3-(1-(5-(5-amino-4-fluoro-3-methyl-2-(trifluoromethyl)phenyl)-2-(((1R or 1S,7a′S)-2,2-difluorodihydro-1′H,3′H-spiro[cyclopropane-1,2′-pyrrolizin]-7a′(5′H)-yl)methoxy)-4-fluoro-8,9-dihydro-10H-7-oxa-1,3,6,10-tetraazacyclohepta[de]naphthalen-10-yl)ethyl)pyridin-2-amine (diastereomer 2)]: the IC50 amounted to 0.3 nM in assay [1] (setting [4]), 2 nM in assay [2] (setting [5]) and 0.4 nM in assay [3] (setting [6]).
Taken in the same sequence, the figures for `Cc1c(F)c(N)cc(-c2nc3c4c(nc(OCC56CC(F)CN5CC(F)C6)nc4c2F)N(C(C)c2cccnc2N)CCO3)c1C(F)(F)F` (single isomer, unassigned; diastereomer 2) [Compound 242, (*)3-(1-(5-(5-amino-4-fluoro-3-methyl-2-(trifluoromethyl)phenyl)-2-(((2R or 2S,6R or 6S)-2,6-difluorotetrahydro-1H-pyrrolizin-7a(5H)-yl)methoxy)-4-fluoro-8,9-dihydro-10H-7-oxa-1,3,6,10-tetraazacyclohepta[de]naphthalen-10-yl)ethyl)pyridin-2-amine (diastereomer 2)] were 0.4 nM, above 100 nM and 3 nM.
The corresponding values for `CC(c1cccnc1N)N1CCOc2nc(-c3cc(N)c(F)c(Cl)c3C(F)(F)F)c(F)c3nc(OCC45CC(F)CN4CC(F)C5)nc1c23` (single isomer, unassigned; diastereomer 2) [Compound 246, (*)3-(1-(5-(5-amino-3-chloro-4-fluoro-2-(trifluoromethyl)phenyl)-2-(((2R or 2S,6R or 6S)-2,6-difluorotetrahydro-1H-pyrrolizin-7a(5H)-yl)methoxy)-4-fluoro-8,9-dihydro-10H-7-oxa-1,3,6,10-tetraazacyclohepta[de]naphthalen-10-yl)ethyl)pyridin-2-amine (diastereomer 2)] are 0.4 nM, 63 nM and 2 nM.
Taken in the same sequence, the figures for `CC(c1cccnc1N)N1c2nc(OC[C@@]34CCCN3C[C@H](F)C4)nc3c(F)c(-c4c(C(F)(F)F)ccc5c4CCCN5)nc(c23)OC[C@@H]1C` (single isomer, unassigned; diastereomer 2) [Compound 339, (*)3-(1-((5R or 5S,9S)-4-fluoro-2-(((2R,7aS)-2-fluorotetrahydro-1H-pyrrolizin-7a(5H)-yl)methoxy)-9-methyl-5-(6-(trifluoromethyl)-1,2,3,4-tetrahydroquinolin-5-yl)-8,9-dihydro-10H-7-oxa-1,3,6,10-tetraazacyclohepta[de]naphthalen-10-yl)ethyl)pyridin-2-amine (diastereomer 2)] were above 100 nM, above 100 nM and above 100 nM.
`CC(c1cccnc1N)N1CCOc2nc(-c3cc(O)cc4ccc(F)c(F)c34)c(F)c3nc(OC[C@@]45CCCN4C[C@H](F)C5)nc1c23` (stereo partly drawn) [Compound 1, 4-(10-(1-(2-Aminopyridin-3-yl)ethyl)-4-fluoro-2-(((2R,7aS)-2-fluorotetrahydro-1H-pyrrolizin-7a(5H)-yl)methoxy)-9,10-dihydro-8H-7-oxa-1,3,6,10-tetraazacyclohepta[de]naphthalen-5-yl)-5,6-difluoronaphthalen-2-ol]: the IC50 in assay [1] (read-out: NCI-H358 (KRAS G12C) IC50, pERK1/2, 2 days) turned out to be 0.7 nM; in assay [2] (read-out: PANC-1 (KRAS G12D) IC50, pERK1/2, 2 days), 6 nM; in assay [3] (read-out: NCI-H441 (KRAS G12V) IC50, pERK1/2, 2 days), 3 nM.
Turning to `Cc1cc2[nH]ncc2c(-c2nc3c4c(nc(OC[C@@]56CCCN5C[C@H](F)C6)nc4c2F)N(C(C)c2cccnc2N)CCO3)c1C` (stereo partly drawn) [Compound 2, 3-(1-(5-(5,6-Dimethyl-1H-indazol-4-yl)-4-fluoro-2-(((2R,7aS)-2-fluorotetrahydro-1H-pyrrolizin-7a(5H)-yl)methoxy)-8,9-dihydro-1OH-7-oxa-1,3,6,10-tetraazacyclohepta[de]naphthalen-10-yl)ethyl)pyridin-2-amine], the IC50 in assay [1] (setting [4]) stood at 9 nM; in assay [2] (setting [5]), 321 nM; in assay [3] (setting [6]) it was 42 nM.
The corresponding values for `Cc1cc2[nH]ncc2c(-c2nc3c4c(nc(O)nc4c2F)N(C(C)c2cccnc2N)CCO3)c1C` (stereo not drawn) [Compound 3, 10-(1-(2-Aminopyridin-3-yl)ethyl)-5-(5,6-dimethyl-1H-indazol-4-yl)-4-fluoro-9,10-dihydro-8H-7-oxa-1,3,6,10-tetraazacyclohepta[de]naphthalen-2-ol] are above 1000 nM, above 1000 nM and above 1000 nM.
Taken in the same sequence, the figures for `CC(c1cccnc1N)N1CCOc2nc(-c3cc(O)cc(Cl)c3C3CC3)c(F)c3nc(OC[C@@]45CCCN4C[C@H](F)C5)nc1c23` (stereo partly drawn) [Compound 4] were 1 nM, 10 nM and 2 nM.
Taken in the same sequence, the figures for `Cc1cc2[nH]ncc2c(-c2nc3c4c(nc(OCC5(CN(C)C)CC5)nc4c2F)N(C(C)c2cccnc2N)CCO3)c1C` (stereo not drawn) [Compound 5] were 710 nM, above 1000 nM and above 1000 nM.
Take `CC(c1cccnc1N)N1CCOc2nc(-c3cc(O)cc4ccc(F)c(F)c34)c(F)c3nc(OC[C@@H]4CCCN4C)nc1c23` (stereo partly drawn) [Compound 6]: the IC50 stood at 4 nM in assay [1] (setting [4]), 136 nM in assay [2] (setting [5]) and 17 nM in assay [3] (setting [6]).
Taken in the same sequence, the figures for `CC(c1cccnc1N)N1CCOc2nc(-c3cc(O)cc4ccc(F)c(F)c34)c(F)c3nc(OCC4(CN(C)C)CC4)nc1c23` (stereo not drawn) [Compound 7] were 8 nM, 238 nM and 33 nM.
The corresponding values for `CC(c1cccnc1N)N1CCOc2nc(-c3cc(O)cc4ccc(F)c(F)c34)c(F)c3nc(OC[C@@H]4CCN4CC(F)F)nc1c23` (stereo partly drawn) [Compound 8] are 1 nM, 113 nM and 2 nM.
Taken in the same sequence, the figures for `CC(c1cccnc1N)N1CCOc2nc(-c3cc(O)cc4ccc(F)c(F)c34)c(F)c3nc(O)nc1c23` (stereo not drawn) [Compound 9] were above 1000 nM, above 1000 nM and above 1000 nM.
`CCOc1nc2c3c(nc(-c4cc(O)cc5ccc(F)c(F)c45)c(F)c3n1)OCCN2C(C)c1cccnc1N` (stereo not drawn) [Compound 10]: the IC50 in assay [1] (setting [4]) is 152 nM; in assay [2] (setting [5]), above 1000 nM; in assay [3] (setting [6]) it was 797 nM.
The corresponding values for `CC(c1cccnc1N)N1CCOc2nc(-c3cc(O)cc4ccc(F)c(F)c34)c(F)c3nc(OC[C@@]45CCCN4C/C(=C\F)C5)nc1c23` (stereo partly drawn) [Compound 11] are 1 nM, 4 nM and 1 nM.
Taken in the same sequence, the figures for `CC(c1cccnc1N)N1CCOc2nc(-c3cc(O)cc4ccc(F)c(F)c34)c(F)c3nc(OC[C@H]4COCCN4)nc1c23` (stereo partly drawn) [Compound 12] were 54 nM, above 1000 nM and 192 nM.
The corresponding values for `CC(c1cccnc1N)N1CCOc2nc(-c3cc(O)cc4ccc(F)c(F)c34)c(F)c3nc(OC[C@@H]4COCCN4)nc1c23` (stereo partly drawn) [Compound 13] are 137 nM, above 1000 nM and 247 nM.
On to `Cc1cc2[nH]ncc2c(-c2nc3c4c(nc(OC[C@@H]5CCN5CC(F)F)nc4c2F)N(C(C)c2cccnc2N)CCO3)c1C` (stereo partly drawn) [Compound 14], for which the IC50 in assay [1] (setting [4]) is 19 nM; in assay [2] (setting [5]), above 1000 nM; in assay [3] (setting [6]), 36 nM.
Take `CC(c1cccnc1N)N1CCOc2nc(-c3c(C(F)(F)F)ccc4[nH]ncc34)c(F)c3nc(OC[C@@]45CCCN4C[C@H](F)C5)nc1c23` (stereo partly drawn) [Compound 15]: the IC50 in assay [1] (setting [4]) stood at 2 nM; in assay [2] (setting [5]), 175 nM; in assay [3] (setting [6]), 17 nM.
The corresponding values for `CC(c1cccnc1N)N1CCOc2nc(-c3cc(O)cc(Cl)c3C3CC3)c(F)c3nc(OC[C@@H]4CCN4CC(F)F)nc1c23` (stereo partly drawn) [Compound 16] are 2 nM, 151 nM and 5 nM.
Taken in the same sequence, the figures for `CC(c1cccnc1N)N1CCOc2nc(-c3cccc4sc(N)nc34)c(F)c3nc(OC[C@@H]4CCN4CC(F)F)nc1c23` (stereo partly drawn) [Compound 17] were 29 nM, above 1000 nM and 108 nM.
Taken in the same sequence, the figures for `CC(c1cccnc1N)N1CCOc2nc(-c3cc(N)ccc3C(F)(F)F)c(F)c3nc(OC[C@@]45CCCN4C[C@H](F)C5)nc1c23` (stereo partly drawn) [Compound 18] were 1 nM, 54 nM and 3 nM.
For the compound `CC(c1cccnc1N)N1CCOc2nc(-c3ccc(F)c4sc(N)nc34)c(F)c3nc(OC[C@@H]4CCN4CC(F)F)nc1c23` (stereo partly drawn) [Compound 19], the IC50 is 15 nM in assay [1] (setting [4]), above 1000 nM in assay [2] (setting [5]) and 66 nM in assay [3] (setting [6]).
Taken in the same sequence, the figures for `CC(c1cccnc1N)N1CCOc2nc(-c3cc(O)cc4ccc(F)c(F)c34)c(F)c3ncnc1c23` (stereo not drawn) [Compound 22] were 38 nM, 393 nM and 105 nM.
With `CC(c1cccnc1N)N1CCOc2nc(-c3c(C(F)(F)F)ccc4[nH]ncc34)c(F)c3nc(OC[C@@H]4CCN4CC(F)F)nc1c23` (stereo partly drawn) [Compound 25], the IC50 in assay [1] (setting [4]) turned out to be 7 nM; in assay [2] (setting [5]), 593 nM; in assay [3] (setting [6]), 14 nM.
